Data published in patent publication EP0406111A1, “Substituted arylamines and heteroarylamines, process for their preparation and pharmaceutical composition containing them” (SOCIETE DE CONSEILS DE […] D'APPLICATIONS SCIENTIFIQUES …, priority 1989, dated 1991).

Assays:
[1] = molecular target: récepteur de la PCP; test: Competition binding at the (3H)TCP sites on rat brain homogenates (Example 36); conditions: 1 nM (3H)TCP, 30 min at 25°C
Excerpt: Exemple 36 : Affinité des composés pour les sites de liaison de la (³H)TCP sur les homogénats de cerveaux de rats.
Dans cet essai on mesure les affinités des composés pour le récepteur de la PCP par des expériences de compétition sur des homogénats de cerveaux de rats. Le ligand radioactif utilisé est la (³H)TCP à une activité spécifique de 62 Ci/mmol (Service des Molécules Marquées, CEA Saclay France).
Les cerveaux de rats (sans le cervelet et le tronc cérébral) sont homogénéisés à l'ultra turax dans 20 volumes de tampon Hepes-Tris 50 mM, pH 7,7. Après centrifugation pendant 30 min à 15000 g le culot est repris dans le même volume de tampon et recentrifugé dans les mêmes conditions. Le culot final est repris dans du tampon Hepes-Tris 50 mM, pH 7,7 de façon à obtenir une concentration en protéine de 6 à 8 mg/ml.
Les expériences de compétition sont réalisées en incubant pendant 30 min les membranes (concentration finale en protéine : 0,6 à 0,8 mg/ml) en milieu tampon 5 mM Hepes-Tris, pH 7,7 à 25°C, en présence d'une concentration fixe de ligand tritié (1 nM)et de concentrations croissantes de composés à tester. Trois échantillons de 600 µL sont ensuite filtrés sur filtres de fibres de verre GF/B prétraités par du PEI (polyéthylénimine) à 0,1%. Les filtres sont rincés avec 3x5ml de tampon Tris-HCl 10 mM, NaCl 100 mM et la radioactivité retenue est mesurée dans un compteur à scintillation liquide. La liaison non spécifique est obtenue en présence de TCP […].

[2] = molecular target: T1, capture de noradrénaline (Rattus norvegicus, UniProt Q63380); test: Tritiated noradrenaline uptake by crude synaptosomal preparations of rat hypothalamus (Example 37); format: biochemical; conditions: rat hypothalamus synaptosomes, 50 nM tritiated noradrenaline, 10 min at 37°C; read-out: Capture 3H-NA IC₅₀
T1 construct: préparations synaptosomales brutes d'hypothalamus de rats; from tissue; host or cells: male Sprague-Dawley rat hypothalamus, crude synaptosomal fraction
T1 sequence (Q63380 1-617): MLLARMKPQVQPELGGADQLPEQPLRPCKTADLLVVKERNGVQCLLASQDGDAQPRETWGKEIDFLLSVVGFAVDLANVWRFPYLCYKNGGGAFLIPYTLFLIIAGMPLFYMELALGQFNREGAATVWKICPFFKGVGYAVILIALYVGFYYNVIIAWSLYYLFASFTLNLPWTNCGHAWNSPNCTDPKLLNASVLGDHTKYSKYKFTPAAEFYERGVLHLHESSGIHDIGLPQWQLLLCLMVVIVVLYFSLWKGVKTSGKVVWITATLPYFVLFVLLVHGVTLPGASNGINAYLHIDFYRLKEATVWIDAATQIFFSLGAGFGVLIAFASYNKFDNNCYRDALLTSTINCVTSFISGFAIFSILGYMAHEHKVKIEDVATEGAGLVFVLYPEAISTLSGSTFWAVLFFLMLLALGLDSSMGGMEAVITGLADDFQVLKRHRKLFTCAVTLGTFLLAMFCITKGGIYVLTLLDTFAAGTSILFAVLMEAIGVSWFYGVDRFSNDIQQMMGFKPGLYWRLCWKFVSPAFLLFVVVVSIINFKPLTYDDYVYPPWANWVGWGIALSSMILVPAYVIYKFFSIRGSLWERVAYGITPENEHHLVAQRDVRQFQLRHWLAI
Method: Exemple 37 : Mesure de la capture de noradrénaline.
La capture de noradrénaline tritiée (40 Ci/mmole) est évaluée à partir de préparations synaptosomales brutes d'hypothalamus de rats (Sprague-Dawley mâle, 200-300g, Charles River, St Aubin lès Elbeuf, France).
Les animaux sont sacrifiés par décapitation et les cerveaux sont rapidement dégagés. Les hypothalami, disséqués à 0-4°C, sont homogénéisés dans 10 volumes (poids/volume) de saccharose 0,32 M préalablement refroidi, au moyen d'un homogénéiseur type Potter-Elvejhem (clairance 80-130 µm, 800 rpm). Les débris cellulaires et le matériel nucléaire sont éliminés par centrifugation (1000 g, 10 min, 4°C). Le surnageant constitue la fraction synaptosomale brute.
Des aliquots (50 µl) de préparation synaptosomale sont préincubés pendant 5 minutes à 37°C, en présence de pargyline 20 µM, et de concentrations croissantes des composés à tester, dans […] d'un milieu Krebs-Ringer enrichi en glucose (composition en mM : NaCl 103, CaCl₂1, MgCl₂ 1, KH₂PO₄ 1, NaHCO₃ 27, acide ascorbique 0,1, glucose 5,4). A l'issue de cette préincubation, la noradrénaline tritiée (concentration finale 50 nM) est ajoutée sous un volume de 40 µl, et l'incubation est poursuivie à 37°C pendant 10 minutes. La réaction est arrêtée par dilution avec 2 ml de milieu glacé et centrifugation (7000 g, 10 minutes, 4°C). Après lavage du culot de centrifugation dans 1 ml de milieu glacé, l'échantillon est à nouveau centrifugé dans les mêmes conditions. Le culot obtenu est remis en suspension dans 250 µl d'eau distillée par sonication (Sonotrode TC 4C). 100 µl de cette suspension sont utilisés pour la mesure de la radioactivité par scintillation liquide (SL 2000, Kontron intertechniques, Trappes, France) et 50 µl pour la détermination des taux de protéines (selon la méthode de Lowry et al.).
La capture non spécifique est étudiée simultanément à 0°C en présence des différentes concentrations de composé.
La capture spécifique (capture totale - capture à 0°C) est exprimée en fentomoles/mg de protéines.
Pour chaque concentration étudiée la mesure était faite en double, 3 à 5 expériences étant pratiquées à des jours différents (préparations synaptosomales différentes). Pour chaque composé, au moins 4 concentrations ont été étudiées (entre 10⁻⁹ et 10⁻⁶M habituellement).

Which results are given for `CCCN(CCC)C1(c2cc3ccccc3s2)CCCCC1` [composé no 3, (benzo(b)thiophényl-2)-1 (dipropylamino-1)-1 cyclohexane]?
IC50 [1]: 424000 nM; IC50 [2]: 22.7 nM

For `C[C@H]1CC[C@](c2cc3ccccc3s2)(N2CCCCC2)CC1` [composé n^o 20, (benzo(b)thiophényl-2)-1-t-méthyl-4-r-(pipéridino-1)-1 cyclohexane], which IC50 [1] is on record?
Its IC50 is 112000 nM.

What about the IC50 [2] of the same compound?
Its IC50 is 94.3 nM.

What does the source list for `CC1CCCN(C2(c3cc4ccccc4s3)CCCCC2)C1` (centres unmarked) [composé n^o 2, (benzo(b)thiophényl-2)-1 ((méthyl-3 pipéridino)-1)-1 cyclohexane]?
IC50 [1]: 52000 nM; IC50 [2]: 40 ± 0.5 nM

With `CC1CC(C)CN(C2(c3cc4ccccc4s3)CCCCC2)C1` (centres unmarked) [composé n^o 6, (benzo(b)thiophényl-2)-1 ((diméthyl-3,5 pipéridino)-1)-1 cyclohexane] as the compound, how does the IC50 [1] read?
The IC50 was > 100000 nM.

And the IC50 [2]?
Its IC50 is 12.5 nM.

How did the IC50 [1] turn out when `BrCC1CCCN(C2(c3cc4ccccc4s3)CCCCC2)C1` (centres unmarked) [composé n^o 10, (benzo(b)thiophényl-2)-1 ((bromométhyl-3 pipéridino)-1)-1 cyclohexane] was run?
Its IC50 is > 100000 nM.

And the IC50 [2]?
Its IC50 is 196 ± 31 nM.

With `C[C@H]1CC[C@@](c2cc3ccccc3s2)(N2CCCCC2)CC1` [composé n^o 21, (benzo(b)thiophényl-2)-1 c-méthyl-4-r-(pipéridino-1)-1 cyclohexane] as the compound, how does the IC50 [1] read?
Its IC50 is > 100000 nM.

And the IC50 [2]?
Its IC50 is 16.5 nM.

For `OC1CCN(C2(c3cc4ccccc4s3)CCCCC2)CC1` [composé 26, (benzo(b)thiophényl-2)-1( (ol-4-pipéridino)-1)-1 cyclohexane], which IC50 [1] is on record?
The IC50 was 31900 nM.

Which results are given for `c1ccc2oc(C3(N4CCCCC4)CCCCC3)cc2c1` [composé n^o 4, (benzo(b)furannyl-2)-1 (pipéridino-1)-1 cyclohexane]?
IC50 [1]: 40000 nM; IC50 [2]: 22.2 nM

How did the IC50 [1] turn out when `c1ccc2sc(C3(N4CCCCC4)CCCCC3)cc2c1` [BTCP, (benzo(b)thiophényl-2)-1 (pipéridino -1) cyclohexane, reference compound] was run?
The IC50 was 20000 nM.

What about the IC50 [2] of the same compound?
Its IC50 is 18.3 nM.
